Like-named read-outs stand apart in the source and are kept apart here.
Legend:
A549 (lung cancer) = experiment: MTT cytotoxicity assay, A549; type: cell-based; conditions: 72 h
Protocol: (§1) All prepared cobalt-polypyridyl complexes were dissolved in DMSO at a final concentration of 50 mmol/L and stored at −20° C. before use. Cytotoxicity was assessed by using the 3-(4,5-dimethylthiazol-2-yl)-2,5-diphenyltetrazolium bromide (MTT) (5.0 mg/ml) assay as previously described (Wong, V. K. et al., Cell Death Dis, 2013, 4, e720). Briefly, 4×10^3 cells per well were seeded in 96-well plates before drug treatments. After overnight culture, the cells were then exposed to different concentrations of selected compounds (0.039-100 μmol/L) for 72 h. Cells without drug treatment were used as control. Subsequently, MTT (10 μL) solution was added to each well and incubated at 37° C. for 4 h followed by the addition of 100 μL solubilization buffer (10% SDS in 0.01 mol/L HCl) and overnight incubation. A570 nm was then determined in each well on the next day. The percentage of cell viability was calculated using the following formula: Cell viability (%)=Atreated/Acontrol×100. Data were obtained from three independent experiments. Cells include HeLa cells (cervical cancer), MCF-7 (breast cancer), H1299, H1975, A549 and LLC-1 (lung cancer), HepG2 and Hep3B (liver cancer) and LO2 (normal human hepatocytes).

[1] = system: Taxol-sensitive HCT8 cancer cells; experiment: MTT cytotoxicity, taxol-sensitive HCT8; type: cell-based; conditions: 72 h
Protocol: as §1, with “experiments.” for “experiments. Cells include HeLa cells (cervical cancer), MCF-7 (breast cancer), H1299, H1975, A549 and LLC-1 (lung cancer), HepG2 and Hep3B (liver cancer) and LO2 (normal human hepatocytes).”

[2] = system: cisplatin-sensitive A2780 ovarian cancer cells; experiment: MTT cytotoxicity, cisplatin-sensitive A2780; type: cell-based; conditions: 72 h
Protocol: as §1, with “experiments.” for “experiments. Cells include HeLa cells (cervical cancer), MCF-7 (breast cancer), H1299, H1975, A549 and LLC-1 (lung cancer), HepG2 and Hep3B (liver cancer) and LO2 (normal human hepatocytes).”
(§2) Cisplatin-sensitive or -resistant A2780, OV2008 and C13 cancer cells were provided by Prof. Benjamin Tsang (Department of Obstetrics and Gynecology and Department of Cellular and Molecular Medicine, University of Ottawa, Canada). HCT116 p53^+/+ and p53^−/− isogenic human colon cancer cells were provided by Professor Bert Vogelstein (Ludwig Center at Johns Hopkins, Howard Hughes Medical Institute, USA). All media were supplemented with 10% fetal bovine serum and the antibiotics penicillin (50 U/ml) and streptomycin (50 μg/ml; Invitrogen, Paisley, Scotland, UK). All cell cultures were incubated at 37° C. in a 5% humidified CO2 incubator.

[3] = system: LO2 (normal human hepatocytes); experiment: MTT cytotoxicity assay, LO2; type: cell-based; conditions: 72 h
Protocol: as §1

H1299 (lung cancer) = experiment: MTT cytotoxicity assay, H1299; type: cell-based, human; conditions: 72 h
Protocol: as §1

[4] = system: Taxol-resistant HCT8 cancer cells; experiment: MTT cytotoxicity, taxol-resistant HCT8; type: cell-based
Protocol: as §1, with “experiments.” for “experiments. Cells include HeLa cells (cervical cancer), MCF-7 (breast cancer), H1299, H1975, A549 and LLC-1 (lung cancer), HepG2 and Hep3B (liver cancer) and LO2 (normal human hepatocytes).”
(§3) All cells were obtained from the American Type Culture Collection (Rockville, Md., USA) unless otherwise specified. Immortalized wild-type and Atg7-deficient mouse embryonic fibroblasts (MEFs) were provided by Professor Masaaki Komatsu (Juntendo University, School of Medicine, Japan). Taxol-resistant types of A549, MCF-7, HCT-8 cancer cells, cisplatin-resistant SGC7901 cancer cells were purchased from KeyGEN BioTECH, China.

LLC-1 (lung cancer) = experiment: MTT cytotoxicity assay, LLC-1; type: cell-based; conditions: LLC-1, MTT, 72 h
Protocol: as §1

[5] = Body weight in mouse lung cancer xenograft model; type: in vivo; conditions: IP 40 mg/kg/day, tumor-bearing mice
Excerpt: The mice were maintained under specific pathogen-free condition in a 12-h light-dark cycle. Experimental conditions were followed in accordance to the “Institutional AnimalCare and User Committee guidelines” of the Macau University of Science and Technology. Xenograft mouse model was constructed as previously described (Wong, V. K. et al., Oncotarget, 2016, 7, 9907-9924). LLC-1 Lewis lung cancer cells (1×10^6 cells) were subcutaneously injected in the right dorsal region of the mice. After tumors grew to about 100 mm^3, the mice were randomly divided into 3 groups: 1) the control group, 2) 40 mg/kg cobalt-polypyridyl complex of Formula (IV) group, and 3) 40 mg/kg cobalt-polypyridyl complex of Formula (IV) as chloride, also referenced as (IV)-Cl (water soluble form) group. The cobalt-polypyridyl complex of Formula (IV) was dissolved in 100 μL buffer (PEG400:EtOH:ddH2O=6:1:3), whereas (IV)-Cl (water soluble form) was dissolved in ddH2O. The complexes were then intraperitoneal injected in mice every day. The body weight of each mouse was recorded with the tumor volume determined by Vernier caliper using the formula of L×W^2×0.52, where L is the longest diameter of tumor and W is the shortest diameter of tumor. Mice with tumor implants were sacrificed after 10 days when the tumor size of vehicle control group reached above 1000 mm^3 due to animal ethical issue.

[6] = system: OV2008/C13 cervical cancer cells; experiment: MTT cytotoxicity, OV2008/C13 (cisplatin-resistant); type: cell-based
Protocol: as §1, with “experiments.” for “experiments. Cells include HeLa cells (cervical cancer), MCF-7 (breast cancer), H1299, H1975, A549 and LLC-1 (lung cancer), HepG2 and Hep3B (liver cancer) and LO2 (normal human hepatocytes).”
as §2

HeLa cancer cells = system: HeLa cancer cells
Protocol: For cell cycle analysis, the cells were harvested and washed with ice-cold phosphate-buffered saline (PBS), and then suspended and permeabilized with 70% ethanol for overnight at 4° C. For detecting DNA content and cell cycle, cells were incubated with the freshly prepared propidium iodide (PI) staining buffer for 30 min at room temperature in dark. Fractions of the cells in G1, S, and G2/M phase were analyzed using Modfit software 3.1.
To investigate whether the cobalt-polypyridyl complexes could suppress cancer cell growth by arresting cell cycle progression, HeLa cancer cells were treated with different concentrations of the cobalt-polypyridyl complex of Formula (IV) (with PF6^− as counterion).

[7] = system: Taxol-resistant MCF-7 cancer cells; experiment: MTT cytotoxicity, taxol-resistant MCF-7; type: cell-based
Protocol: as §1, with “experiments.” for “experiments. Cells include HeLa cells (cervical cancer), MCF-7 (breast cancer), H1299, H1975, A549 and LLC-1 (lung cancer), HepG2 and Hep3B (liver cancer) and LO2 (normal human hepatocytes).”
as §3

In the case of `Cc1ccnc(-c2cc(C)ccn2)c1.Cc1ccnc(-c2cc(C)ccn2)c1.Cc1ccnc(-c2cc(C)ccn2)c1.F[P-](F)(F)(F)(F)F.F[P-](F)(F)(F)(F)F.F[P-](F)(F)(F)(F)F.[Co+3]` [complex (IV), [Co^III(4,4′-Me2-Bpy)3.](PF6)3], the IC50 (A549 (lung cancer)) is reported as 7.86 µM, the IC50 [1] is reported as 3.39 µM and the IC50 [2] is reported as 12.3 µM. For the same compound, the IC50 [3] was 13.2 µM, the IC50 (H1299 (lung cancer)) was 2.84 µM and the IC50 ([4]; HCT8, MTT, 72 h) was 1.22 µM. For the same compound, the “Resistant Factor” value ([4]; HCT8, IC50 taxol-resistant over IC50 taxol-sensitive) was 0.36, the IC50 (LLC-1 (lung cancer)) was 3.39 µM and the “reduction in body weight” value [5] was “no significant reduction in body weight”. The IC50 ([6]; OV2008/C13, MTT, 72 h) was 7.59 µM, the “Resistant Factor” value ([6]; OV2008/C13 over OV2008) was 1.0 and the “effect on cell cycle progression” value (HeLa cancer cells; high concentration) was “arrest HeLa cancer cell in S-phase”. The “effect on cell cycle progression” value (HeLa cancer cells; low concentration) was “negligible effect on cell cycle progression”, the IC50 ([7]; MCF-7, MTT, 72 h) was 2.71 µM and the “Resistant Factor” value ([7]; MCF-7, IC50 taxol-resistant over IC50 taxol-sensitive) was 0.68.

Reference: patent publication US9895338B1, “Cobalt-polypyridyl complex for treatment of cancer, a pharmaceutical composition and a kit comprising it” (Macau University of Science and Technology, priority 2016, dated 2018)
